Reference: patent publication US10898504B2, “Substituted nucleoside analogues for use as PRMT5 inhibitors” (Janssen Pharmaceutica NV, priority 2016, dated 2021)
“And” between values parts separate entries of the source, which are not always exact repeats. Identical values can stand only once.

Columns and labels:
PRMT5-MEP50 enzyme = molecular target: T1, PRMT5-MEP50 enzyme (Homo sapiens, UniProt O14744); experiment: In vitro assay (Assay 1): PRMT5-MEP50 high throughput mass spectrometer assay, inhibition of SAH formation; type: biochemical; settings: individual measurements shown, read-out: pIC50 Assay 1 (converted)
T1 construct: One virus expresses full length human PRMT5 with Flag-tag at N-terminus
Description: EXPERIMENTAL PROCEDURES IN VITRO ASSAY (ASSAY 1)
PRMT5-MEP50 enzyme was purchased from Charles River (Argenta). The enzyme complex was produced in insect cells (Sf9) infected simultaneously with two baculoviruses. One virus expresses full length human PRMT5 with Flag-tag at N-terminus, the second virus expresses full length MEP50 with His6-TEV cleavage at N-terminus. The protein was affinity purified using anti-Flag (M2) beads eluted with 3×FLAG peptide, followed by His-Select eluted with 0.5M imidazole. Eluted protein was then dialysed against tris-buffered saline (TBS) (pH 8.0) containing 20% glycerol and 3 mM dithiothreitol (DTT).
Full-length untagged human recombinant histone H2A (residues 1-130, Genbank Accession #NM_021052, MW=14.1 kDa) expressed in E. coli was purchased from Reaction Biology Corporation, Cat #HMT-11-146. Reagents used for making reaction buffer or stopping reaction were purchased including Tris base (Sigma Cat #T-1503), NaCl (Sigma Cat #RGF-3270), MgCl2 (Sigma Cat #M0250), DTT (Invitrogen Cat #15508-013) and Formic Acid (Riedel deHaen, Cat #33015)
High Throughput Mass Spectrometer Assay
PRMT5 catalyzes the sequential methylations of the terminal nitrogen atoms on the guanidine groups of arginine residues within proteins using co-substrate S-adenosyl-L-methionine (AdoMet, SAM), forming mono-methyl (MMA), symmetric-dimethyl arginine (sDMA) and S-adenosyl-L-homocysteine (AdoHcy, SAH). The enzyme activity was determined by following the product SAH formation using high throughput mass spectrometry (Agilent Rapidfire 300 System coupled to a Sciex 4000 series QTrapm triple-quad MS/MS). The reaction buffer was 20 mM Tris-HC, pH 8.5, 50 mM NaCl, 5 mM MgCl2 and 1 mM DTT. The reaction activity was stopped using 1% formic acid (final concentration).
The IC50 Studies were performed using eleven point dosing series made for each compound by serially diluted 1:2 in dimethyl sulfoxide (DMSO), with point 12 being a DMSO control. Compounds were first spotted to plates, and followed by addition of 2 μM SAM and 0.6 μM H2A (histone H2A) solution mixture. The same volume of enzyme solution was added to initiate the enzymatic reactions. The final concentrations of the reaction are at 1 μM SAM, 0.3 μM H2A and 10 nM enzyme. The reaction was incubated at 30° C. for 60 minutes (min) and then quenched by addition of formic acid to a final concentration of 1%. The inhibitions of SAH formation in the presence of compounds were calculated as a percentage of the control relative to the uninhibited reaction as a function of inhibitor concentration. The data were fit as follows: Y=Bottom+(Top−Bottom)/(1+10^((log IC50−X)*h))
where IC50 is the inhibitor concentration (same unit as X) at 50% inhibition and h is the Hill slope. Y is percent of inhibition, X is log of compound concentration. Bottom and Top are the plateaus in same units as Y.

A549 cells = experiment: PD assay (Assay 2): inhibition of nuclear symmetric Arginine dimethylation (SYM10 immunohistochemistry) in A549 cells; type: cell-based; settings: individual measurements shown; for IC50: Homo sapiens, A549, PD assay in A549 cells, read-out: pIC50 Assay 2 (converted); for pIC50 Assay 2: PD assay in A549 cells
Procedure: EXPERIMENTAL PROCEDURE PD ASSAY (ASSAY 2)
A549 cells (ATCC, Cat #CCL-185) were cultured in Dulbecco's Modified Eagle's Medium (DMEM) (Sigma, Cat #D5796), supplemented with 10% Fetal Calf Serum (FCS)(HyClone™, Cat #SV30160.03), 100 mM Sodium Pyruvate (Sigma, Cat #S8636), 200 mM L-Glutamine (Sigma, Cat #G7513) and 50 mg/mL Gentamycing (Gibco, Cat #15750-037).
Reagents used for buffers were purchased: Dulbecco's phosphate buffered saline (DPBS) without Ca/Mg (Sigma, Cat #D8537), phosphate buffered saline (PBS) 10× (Roche, Cat #11 666 789 001), Formalin solution 10% (Sigma, HT50-1-128-4L), MeOH 100% (Sigma, Cat #32213-2.5L), Triton X-100 (Acros, Cat #215680010), Bovine Serum Albumin (BSA) (Sigma, Cat #A2153), Alexa fluor 488 goat anti-rabbit antibody (Life Technologies, Cat #A11034), HCS CellMask Deep Red Stain (Life Technologies, Cat #H32721), Hoechst Stain (Life Technologies, Cat #33258), Anti-dimethyl-Arginine, sym (SYM10) antibody (Millipore, 07-412).
Immunohistochemistry Procedure
Cells were plated at 400 cells/40 μL/well in 384 well black plates μclear bottom (Perkin Elmer) and overnight incubated at 37° C., 5% CO2. The IC50 Studies were performed using nine point dosing series ranging from 10 μM to […] for each compound. 80 nL of the respective dilution of the compounds was added using the Labcyte POD 810 (Labcyte) reaching a final DMSO concentration of 0.2% in cell culture. After an incubation period of 48 h at 37° C. and 5% CO2, cells were fixed in 10% formalin solution for 15 min at r.t. and 20 min in ice-cold MeOH, after which they were washed 3× in DPBS. Subsequently, the cells were blocked for 1 h in blocking buffer (PBS+1% BSA and 0.5% Triton X-100) and incubated overnight at 4° C. with the SYM10 antibody diluted 1/2000 in blocking buffer. The cells were washed 3× with washing buffer (PBS+0.1% Triton X-100) and incubated with the Alexa fluor 488 goat anti-rabbit antibody diluted 1/200 in blocking buffer for 1 h at r.t. Subsequently, they were washed 3× with washing buffer and incubated for 30 min at r.t. with PBS containing a 1/5000 dilution of Hoechst Stain and a 1/5000 dilution of the HCS CellMask Deep Red Stain. After a final wash with PBS, the plates were imaged using the 10×W lens of the Opera® system (Perkin Elmer Life Sciences) using following settings (values in nm):
In the above equations, the following variable names are use: […]
In the above equations, the following controls were used for normalization: […]
Low control: minimum level of symmetrically dimethylated Arginines (cells treated with reference compound at 10 μM).
High control: maximum level of symmetrically dimethylated Arginines (DMSO treated cells).
IC50 and pIC50 (−log IC50) values were calculated using the appropriate software.
pIC50 values (Co. No. means compound number; n.d. means not determined).

T1 sequence (O14744 whole entry): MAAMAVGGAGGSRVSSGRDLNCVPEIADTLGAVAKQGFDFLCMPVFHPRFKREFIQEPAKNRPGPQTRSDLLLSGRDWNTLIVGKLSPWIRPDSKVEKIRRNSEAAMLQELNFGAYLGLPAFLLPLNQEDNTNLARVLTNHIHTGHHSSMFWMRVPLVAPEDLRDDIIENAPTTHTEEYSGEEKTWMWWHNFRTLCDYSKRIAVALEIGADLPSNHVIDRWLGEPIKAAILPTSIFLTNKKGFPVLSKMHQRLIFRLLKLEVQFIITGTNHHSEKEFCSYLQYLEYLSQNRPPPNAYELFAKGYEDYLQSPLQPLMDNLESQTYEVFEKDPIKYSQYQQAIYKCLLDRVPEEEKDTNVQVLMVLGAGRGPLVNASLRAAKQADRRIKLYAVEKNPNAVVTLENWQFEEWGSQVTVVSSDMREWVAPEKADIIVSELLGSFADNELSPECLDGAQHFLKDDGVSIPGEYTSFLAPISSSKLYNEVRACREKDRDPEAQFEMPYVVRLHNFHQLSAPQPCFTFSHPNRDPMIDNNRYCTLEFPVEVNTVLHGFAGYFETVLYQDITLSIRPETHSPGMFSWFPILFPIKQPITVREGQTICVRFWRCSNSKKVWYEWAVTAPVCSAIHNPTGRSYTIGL
T1 sequence (Q9BQA1 whole entry partner): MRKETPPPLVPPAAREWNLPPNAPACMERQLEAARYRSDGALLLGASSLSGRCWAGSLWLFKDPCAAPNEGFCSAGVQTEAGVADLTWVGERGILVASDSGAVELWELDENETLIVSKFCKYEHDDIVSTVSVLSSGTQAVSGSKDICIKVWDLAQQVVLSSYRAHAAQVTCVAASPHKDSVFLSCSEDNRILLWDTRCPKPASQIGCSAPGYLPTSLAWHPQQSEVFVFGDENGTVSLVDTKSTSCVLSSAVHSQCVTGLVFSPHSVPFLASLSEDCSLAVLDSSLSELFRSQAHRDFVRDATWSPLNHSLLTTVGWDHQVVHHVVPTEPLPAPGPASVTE

Row | Compound | IC50 (PRMT5-MEP50 enzyme) | IC50 (A549 cells) | pIC50 Assay 2 (A549 cells)
1 | Nc1ncnc2c1ccn2[C@@H]1O[C@H](CN2CCC(N)C2)[C@@H](O)[C@H]1O (stereo partly drawn) [Compound 54] | 1550 nM | > 10000 nM | –
2 | NC[C@@H]1COCCN1C[C@H]1O[C@@H](n2ccc3c(N)ncnc32)[C@H](O)[C@@H]1O [Compound 72] | 53.7 nM | ~3550 nM | –
3 | NC[C@@H]1COCCN1C[C@H]1O[C@@H](c2ccc3c(N)ncnn23)[C@H](O)[C@@H]1O [Compound 132] | 1550 nM | > 20000 nM | –
4 | Nc1ncnc2c1ccn2[C@@H]1O[C@H](CN2CCC23CCNCC3)[C@@H](O)[C@H]1O [Compound 112] | 33.1 nM | ~1780 nM | –
5 | NCCC1CN(C[C@H]2O[C@@H](n3ccc4c(N)ncnc43)[C@H](O)[C@@H]2O)CCO1 (stereo partly drawn) [Compound 47] | 692 nM | > 10000 nM | –
6 | NCCC1CCN(C[C@H]2O[C@@H](n3ccc4c(N)ncnc43)[C@H](O)[C@@H]2O)C1 (stereo partly drawn) [Compound 55] | 309 nM | 6170 nM | –
7 | Nc1ncnn2c([C@@H]3O[C@H](CN4CCOC[C@H]4CN4CCC(F)(F)C4)[C@@H](O)[C@H]3O)ccc12 [Compound 130] | > 10000 nM | > 20000 nM | –
8 | Nc1ncnc2c1ccn2[C@@H]1O[C@H](CN2CCCC3(CNC3)C2)[C@@H](O)[C@H]1O [Compound 45] | 83.2 nM | ~741 nM | –
9 | Nc1ncnn2c([C@@H]3O[C@H](C(=O)N4CCCC45CCNCC5)[C@@H](O)[C@H]3O)ccc12 [Compound 161] | 380 nM | 4170 nM | –
10 | Nc1ncnc2c1ncn2[C@@H]1O[C@H](CN2CCC23CCNC3)[C@@H](O)[C@H]1O (stereo partly drawn) [Compound 87] | 2400 nM | > 10000 nM | –
11 | CCN1CCC2(CCCN2C[C@H]2O[C@@H](c3ccc4c(N)ncnn34)[C@H](O)[C@@H]2O)CC1 [Compound 142] | 1950 nM | > 10000 nM | –
12 | Nc1ncnn2c([C@@H]3O[C@H](CN4CC(F)(F)CC45CCN(CC(F)(F)F)CC5)[C@@H](O)[C@H]3O)ccc12 [Compound 145] | > 10000 nM | > 10000 nM | –
13 | Nc1ncnc2c1ncn2[C@@H]1O[C@H](CN2CCC3(CCNCC3)C2)[C@@H](O)[C@H]1O [Compound 75] | 39800 nM | > 10000 nM | –
14 | NC[C@@H]1CC(F)(F)CCN1C[C@H]1O[C@@H](c2ccc3c(N)ncnn23)[C@H](O)[C@@H]1O [Compound 160] | 2690 nM | > 20000 nM | –
15 | CN1CCC2(CC1)CCN(C[C@H]1O[C@@H](n3cnc4c(N)ncnc43)[C@H](O)[C@@H]1O)C2 [Compound 16] | 22400 nM | > 10000 nM | –
16 | CN1CC2(CCCCN2C[C@H]2O[C@@H](n3cnc4c(N)ncnc43)[C@H](O)[C@@H]2O)C1 [Compound 11] | 12300 nM | > 10000 nM | –
17 | Nc1ncnc2c1ccn2[C@@H]1O[C@H](CN2CCCC23CCN(CC2OCCc4ccccc42)CC3)[C@@H](O)[C@H]1O (stereo partly drawn) [Compound 201] | 457 nM | ~10200 nM | –

Row | Compound | IC50 (PRMT5-MEP50 enzyme) | IC50 (A549 cells) | pIC50 Assay 2 (A549 cells)
18 | CN(C)CC[C@@H]1CCCN1C[C@H]1O[C@@H](c2ccc3c(N)ncnn23)[C@H](O)[C@@H]1O [Compound 148] | 1260 nM | > 10000 nM | –
19 | CC(C)C(=O)O[C@@H]1[C@H](OC(=O)C(C)C)[C@@H](CN2CCCC23CCNCC3)O[C@H]1n1ccc2c(N)ncnc21 [Compound 94] | > 10000 nM | ~50.1 nM | –
20 | NCC[C@@H]1CCCN1C[C@H]1CN(C2C=Cc3c(N)ncnc32)[C@H](O)[C@@H]1O (stereo partly drawn) [Compound 127] | 61.7 nM | ~2750 nM | –
21 | Nc1ncnc2c1ncn2[C@@H]1O[C@H](CN2CCC23CCNCC3)[C@@H](O)[C@H]1O [Compound 81] | 355 nM | 8130 nM | –
22 | CC(C)C(=O)O[C@@H]1[C@H](OC(=O)C(C)C)[C@@H](CN2CCCC23CCN(C)CC3)O[C@H]1n1ccc2c(N)ncnc21 [Compound 95a] | > 10000 nM | – | 6.94 and 6.95
23 | NC[C@H]1COCCN1C[C@H]1O[C@@H](n2ccc3c(N)ncnc32)[C@H](O)[C@@H]1O [Compound 49] | 120 nM | ~5130 nM | –
24 | N#CCCN1CCC2(CCCN2C[C@H]2O[C@@H](n3ccc4c(N)ncnc43)[C@H](O)[C@@H]2O)CC1 [Compound 193] | 186 nM | 468 nM | –
25 | CN1CC2(CCN2C[C@H]2O[C@@H](n3cnc4c(N)ncnc43)[C@H](O)[C@@H]2O)C1 [Compound 18] | 8510 nM | > 10000 nM | –
26 | CC(C)C(=O)O[C@@H]1[C@H](OC(=O)C(C)C)[C@@H](CN2CCCC23CCN(C)CC3)O[C@H]1n1ccc2c(N)ncnc21 [Compound 95b] | > 100000 nM | – | ~7.34 and 7.05
27 | Nc1ncnc2c1ccn2[C@@H]1O[C@H](CN2CCCC23CCN(Cc2ccoc2)CC3)[C@@H](O)[C@H]1O [Compound 175] | 589 nM | 1410 nM | –
28 | CN1CCC2(CCCN2C[C@H]2O[C@@H](n3ccc4c(N)nccc43)[C@H](O)[C@@H]2O)CC1 [Compound 66] | 603 nM | 6760 nM | –
29 | Nc1ncnc2c1ccn2[C@@H]1O[C@H](CN2CCCC23CCN(CC(F)F)CC3)[C@@H](O)[C@H]1O [Compound 196] | 1150 nM | 3240 nM | –
30 | Nc1ncnc2c1ccn2[C@@H]1O[C@H](CN2C(C(F)(F)F)CCC23CCNCC3)[C@@H](O)[C@H]1O (single isomer, unassigned) [Compound 116] | 151 nM | – | 5.53
31 | Nc1ncnn2c([C@@H]3O[C@H](CN4CC(F)(F)CC45CCNCC5)[C@@H](O)[C@H]3O)ccc12 [Compound 136] | 50.1 nM | ~263 nM | –
32 | CN1CCC2(CCC/C2=C\[C@H]2C[C@@H](n3ccc4c(N)ncnc43)[C@H](O)[C@@H]2O)CC1 [Compound 207] | 5.01 nM | 52.5 nM | –
33 | CN1CCC2(CCN2C[C@H]2O[C@@H](n3cnc4c(N)ncnc43)[C@H](O)[C@@H]2O)C1 (stereo partly drawn) [Compound 3] | 1660 nM | > 10000 nM | –
